{
  "source": "paper PMC12680861",
  "about": "“Comparative analysis of LJ-4378 and tirzepatide in mouse models of obesity and weight regain” (Archives of Pharmacal Research, 2025)",
  "key": {"CYP3A4": {"biological_target": "CYP3A4 (Homo sapiens, UniProt P08684)", "sequence (P08684 whole entry, canonical isoform)": "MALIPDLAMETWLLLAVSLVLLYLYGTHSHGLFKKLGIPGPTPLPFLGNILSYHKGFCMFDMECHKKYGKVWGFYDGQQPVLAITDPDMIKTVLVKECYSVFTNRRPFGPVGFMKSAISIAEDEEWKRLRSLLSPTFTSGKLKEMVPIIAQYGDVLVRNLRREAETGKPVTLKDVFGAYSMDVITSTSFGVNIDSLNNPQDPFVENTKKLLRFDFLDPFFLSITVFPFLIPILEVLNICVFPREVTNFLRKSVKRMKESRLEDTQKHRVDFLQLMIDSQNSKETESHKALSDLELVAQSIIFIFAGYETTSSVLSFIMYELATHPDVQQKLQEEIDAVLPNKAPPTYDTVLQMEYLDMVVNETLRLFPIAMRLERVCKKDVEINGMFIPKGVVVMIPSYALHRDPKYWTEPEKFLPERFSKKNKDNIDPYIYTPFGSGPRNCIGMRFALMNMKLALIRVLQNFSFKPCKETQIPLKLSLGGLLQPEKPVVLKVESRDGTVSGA", "assay": "CYP enzyme inhibition in pooled human liver microsomes (midazolam substrate)", "conditions": "at 10 µM, 15 min", "protocol": "(§1) Cytochrome 450 (CYP) enzyme inhibition was evaluated using pooled human liver microsomes (Corning, #452117). […] Substrates and corresponding metabolites for each CYP isoform were as follows: phenacetin and acetaminophen for CYP1A2 (Sigma Aldrich, #77440 and A7085, respectively), diclofenac and 4'-hydroxydiclofenac for CYP2C9 (Sigma Aldrich, D6899; TRC, H825225), S-mephenytoin and 4'-hydroxymephenytoin for CYP2C19 (Sigma Aldrich, UC175; Santacruz, sc210197), dextromethorphan and dextrorphan for CYP2D6 (Sigma Aldrich, #81091 and UC205), and midazolam and 1'-hydroxymidazolam for CYP3A4 (KFDA; Sigma Aldrich, UC430).\n(§2) Samples were preincubated at 37 °C for 5 min, and the reaction was initiated by the addition of the NADPH regeneration system, followed by incubation at 37 °C for 15 min. The reaction was terminated by adding acetonitrile containing the internal standard, and centrifuged at 15,000 rpm for 5 min at 4 °C. The supernatant was analyzed by LC–MS/MS using a Nexera XR system (Shimadzu, Japan) coupled with a TSQ Vantage mass spectrometer (Thermo, USA). […] Metabolites were quantified in multiple reaction monitoring (MRM) mode with Xcalibur software (version 4.4).\n(§3) All experiments were performed in duplicate with variability ≤ 15%. The percent activity of each CYP enzyme was calculated based on metabolite formation relative to the no-inhibitor control."}, "[1]": {"assay": "Preliminary study, I.V. bolus administration to mice", "assay_type": "in vivo"}, "CYP1A2": {"biological_target": "T1, CYP1A2 (Homo sapiens, UniProt P05177)", "T1 sequence (P05177 1-516)": "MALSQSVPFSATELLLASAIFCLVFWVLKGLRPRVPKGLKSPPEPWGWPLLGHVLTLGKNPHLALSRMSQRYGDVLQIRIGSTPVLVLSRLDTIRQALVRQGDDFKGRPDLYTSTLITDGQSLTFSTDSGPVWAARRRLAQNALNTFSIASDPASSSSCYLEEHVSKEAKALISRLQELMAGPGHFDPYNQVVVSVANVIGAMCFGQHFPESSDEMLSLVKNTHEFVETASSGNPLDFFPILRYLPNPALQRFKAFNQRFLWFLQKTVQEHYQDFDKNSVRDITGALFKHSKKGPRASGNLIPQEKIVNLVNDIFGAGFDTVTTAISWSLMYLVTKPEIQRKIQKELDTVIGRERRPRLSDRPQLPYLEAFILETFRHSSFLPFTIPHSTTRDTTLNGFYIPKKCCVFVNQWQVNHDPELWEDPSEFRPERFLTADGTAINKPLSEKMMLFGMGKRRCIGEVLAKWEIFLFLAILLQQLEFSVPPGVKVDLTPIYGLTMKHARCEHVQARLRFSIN", "assay": "CYP enzyme inhibition in pooled human liver microsomes (phenacetin substrate)", "conditions": "microsomes, 10 µM", "protocol": "as §1, §2, §3"}, "WR mice": {"system": "WR mice", "assay": "WR model: indirect calorimetry and adipose immunoblot after treatment cessation", "assay_type": "in vivo, C57BL/6 J male mice", "text": "To assess post-treatment weight rebound (WR), the mice previously treated with vehicle, LJ-4378, or TZP were maintained on HFD for an additional 4 weeks following treatment cessation. Treatment protocols for the WR groups were identical to those of the HFD groups. In total, nine experimental groups were established: NCD + CTL, NCD + LJ, NCD + TZP; HFD + CTL, HFD + LJ, HFD + TZP; and WR + CTL, WR + LJ, WR + TZP. The volume of oxygen consumed (VO2), carbon dioxide produced (VCO2), respiratory exchange ratio (RER), energy expenditure, activity, and food intake were measured with PhenoMaster (TSE Systems, Bad Homburg, Germany). Indirect calorimetry was performed under controlled conditions, with a stable ambient temperature of 24 °C and a 12 h light/12-h dark cycle. Mice fed HFD were administered vehicle, LJ-4378, or TZP for 14 days, and the last 2 days of treatment were conducted during indirect calorimetry analysis. The WR model was examined by indirect calorimetry after 2 and 4 weeks of the weight regaining phase.\nFor protein extraction, we utilized PRO-RERP Protein Extraction Solution (17081, iNtRON Biotechnology, Gyeonggi-do, Korea), supplemented with […] Protease Inhibitor (S8820, Sigma, St. Louis, MO, USA) and PhosSTOP phosphatase inhibitor (#4906837001, Roche, Basel, Switzerland). Protein concentrations were determined using the Pierce BCA protein assay Kit (#23227, Thermo Fisher, Waltham, Massachusetts, USA) by measuring absorbance at 562 nm with a MultiSkan GO spectrophotometer (Thermo Fisher). The quantified proteins were loaded and separated in 12% SDS-PAGE gels and transferred to polyvinylidene difluoride (PVDF) membranes (Bio-Rad, Hercules, CA, USA). Membranes were blocked in 5% bovine serum albumin or skim milk in Tris-buffered saline with 0.1% Tween 20 (TBST) for 1 h, followed by overnight incubation with primary antibodies. The next day, membranes were washed 3 times with TBST and incubated for 1 h with horseradish peroxidase (HRP)-conjugated secondary antibody: Goat anti-rabbit (1:3000, #31460, Thermo Fisher) and Goat anti-Mouse IgG (1:3000, 115–035-174, Jackson ImmunoResearch). After secondary antibody incubation, membranes were washed 3 times with TBST and detected with the Fusion Solo chemiluminescence imaging system (Vilber Lourmat, France). EvolutionCapt (version 17.03) software and the ImageJ (National Institutes of Health, Bethesda, MD, USA) program were used for analysis and to quantify the protein level."}, "[2]": {"conditions": "two weeks after treatment cessation"}},
  "data": [
    {"smiles": "CCCCC#Cc1nc(N)c2ncn([C@@H]3SC[C@@H](O)[C@H]3O)c2n1", "note": "[LJ-4378]", "values": [
      {"measurement": "% of control activity CYP3A4", "setting": "CYP3A4", "result": 96.9, "unit": "%"},
      {"measurement": "terminal phase half-life", "setting": "[1]", "result": "approximately 0.29 h"},
      {"measurement": "% of control activity CYP1A2", "setting": "CYP1A2", "result": 82.2, "unit": "%"},
      {"measurement": "P-HSL and mitochondrial proteins in BAT and iWAT, versus WR controls and TZP", "setting": "WR mice; 2 weeks after treatment cessation", "result": "higher levels"},
      {"measurement": "energy expenditure, ANCOVA adjusted for body mass, versus vehicle or TZP", "setting": "WR mice; 2 weeks post-treatment, WR", "result": "higher energy expenditure"},
      {"measurement": "elevated energy expenditure after 4 weeks of WR", "setting": "WR mice; 4 weeks post-treatment", "result": "no longer evident"},
      {"measurement": "VO2, VCO2 and energy expenditure compared with TZP-treated group", "setting": "WR mice; [2]", "result": "significantly higher"},
      {"measurement": "VO2, VCO2 and energy expenditure compared with WR controls", "setting": "WR mice; [2]", "result": "elevated"}
    ]}
  ]
}
